Measured values from ChEMBL document CHEMBL1201862, “PubChem BioAssay data set” (2004).
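Growth conditions: 96-well plates. Treatment: test compound, 48 hours, 5 concentrations. Analysis: linear interpolation between bracketing concentrations; unreached endpoints set to highest concentration. GI50: concentration for 50% inhibition of growth.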 Activity calls are given as the source filed them. Cut-off read from the data, not from the text of the source: active = GI50 up to about 1.1 µM and inactive = higher.

Key:
Assay in all cases: NCI tumour cell line growth inhibition, 48 h
UACC-257 = tested on: UACC-257
BT-549 = tested on: BT-549
SF-268 = tested on: SF-268
K562 = tested on: K562
SN12C = tested on: SN12C
SF-539 = tested on: SF-539
UACC-62 = tested on: UACC-62
ACHN = tested on: ACHN
COLO 205 = tested on: COLO 205
CAKI-1 = tested on: CAKI-1
LOX IMVI = tested on: LOX IMVI
HCT-15 = tested on: HCT-15
A549 = tested on: A549
NCI-H460 = tested on: NCI-H460
NCI/ADR-RES = tested on: NCI/ADR-RES
SNB-19 = tested on: SNB-19
Malme-3M = tested on: Malme-3M
SF-295 = tested on: SF-295
OVCAR-4 = tested on: OVCAR-4
DU-145 = tested on: DU-145

Row | SMILES | GI50 (UACC-257) | GI50 (BT-549) | GI50 (SF-268) | GI50 (K562) | GI50 (SN12C) | GI50 (SF-539) | GI50 (UACC-62) | GI50 (ACHN) | GI50 (COLO 205) | GI50 (CAKI-1) | GI50 (LOX IMVI) | GI50 (HCT-15) [µM] | GI50 (A549) | GI50 (NCI-H460) | GI50 (NCI/ADR-RES) | GI50 (SNB-19) | GI50 (Malme-3M) | GI50 (SF-295) | GI50 (OVCAR-4) | GI50 (DU-145)
1 | CCCCCCCCCCCCCCCC(=O)OCC(C[As](=O)(O)O)OC(=O)CCCCCCCCCCCCCCC (stereo not drawn) | > 100 µM (inactive) | > 100 µM (inactive) | 68.9 µM (inactive) | > 100 µM (inactive) | > 74.5 µM (inactive) | > 100 µM (inactive) | > 100 µM (inactive) | > 71.6 µM (inactive) | > 100 µM (inactive) | 97.3 µM (inactive) | > 100 µM (inactive) | > 66.5 | > 100 µM (inactive) | > 100 µM (inactive) | > 100 µM (inactive) | > 56.8 µM (inactive) | > 74.8 µM (inactive) | > 82.6 µM (inactive) | > 100 µM (inactive) | 
2 | CC(C)OC(=O)Nc1cccc(Cl)c1 [CHLORPROPHAM] | > 100 µM (inactive) | 87.7 µM (inactive) | > 100 µM (inactive) | 89.9 µM (inactive) | > 100 µM (inactive) | > 100 µM (inactive) | > 100 µM (inactive) | > 100 µM (inactive) | > 100 µM (inactive) | > 100 µM (inactive) | > 100 µM (inactive) | 83.6 | > 100 µM (inactive) | 76.4 µM (inactive) | 91.4 µM (inactive) | > 100 µM (inactive) |  | > 100 µM (inactive) | > 100 µM (inactive) | > 100 µM (inactive)
3 | [N-]=[N+]=NI1OC(=O)c2ccccc21 | > 100 µM (inactive) |  | 73.6 µM (inactive) | 36.6 µM (inactive) | > 100 µM (inactive) | > 100 µM (inactive) | > 100 µM (inactive) | 65.9 µM (inactive) | 48.5 µM (inactive) | 23.8 µM (inactive) | 90.2 µM (inactive) | 50.7 | > 100 µM (inactive) |  | > 100 µM (inactive) | > 100 µM (inactive) |  | > 100 µM (inactive) | > 100 µM (inactive) | > 100 µM (inactive)
4 | O=C(Cc1nc2ccc(C(=O)c3ccccc3)cc2nc1O)C(=O)Nc1ccccc1[N+](=O)[O-] | > 100 µM (inactive) | 58.9 µM (inactive) | 87.7 µM (inactive) | 30.1 µM (inactive) | > 100 µM (inactive) | > 100 µM (inactive) | 55.3 µM (inactive) | 67.3 µM (inactive) |  | 34.8 µM (inactive) | 67.9 µM (inactive) | 46.3 | > 100 µM (inactive) | 53.6 µM (inactive) | 45.1 µM (inactive) |  | 80.9 µM (inactive) | 48.6 µM (inactive) | 32.4 µM (inactive) | 
5 | NS(=O)(=O)c1cc(S(N)(=O)=O)c(NC(=O)N(c2ccccc2)c2ccccc2)c(Cl)c1Cl | 10.4 µM (inactive) | 15.9 µM (inactive) | 42.2 µM (inactive) | 20.1 µM (inactive) | 19.5 µM (inactive) |  | 26.2 µM (inactive) | 23.2 µM (inactive) | 22.9 µM (inactive) | 21.4 µM (inactive) | 12.5 µM (inactive) | 20.3 | 31.8 µM (inactive) | 34.9 µM (inactive) | 19 µM (inactive) | 40.4 µM (inactive) |  | 30.2 µM (inactive) | 27.4 µM (inactive) | 
6 | CCCCCCCCC#CCCCCCCC(F)C(=O)O (stereo not drawn) | > 100 µM (inactive) |  | > 100 µM (inactive) | 40 µM (inactive) |  | > 100 µM (inactive) |  | > 100 µM (inactive) | > 100 µM (inactive) |  | > 100 µM (inactive) | > 100 | > 100 µM (inactive) | > 100 µM (inactive) | > 100 µM (inactive) | > 100 µM (inactive) | > 100 µM (inactive) | > 100 µM (inactive) | 83.6 µM (inactive) | > 100 µM (inactive)
7 | CC1OC(OC2CC(O)(C(=O)CO)Cc3c(O)c4c(c(O)c32)C(=O)c2ccccc2C4=O)CC(N)C1O (stereo not drawn) | 0.054 µM (active) | 0.171 µM (active) | < 0.0163 µM (active) | < 0.0118 µM (active) | < 0.0112 µM (active) | < 0.0112 µM (active) | 0.0101 µM (active) | < 0.01 µM (active) | < 0.017 µM (active) | < 0.01 µM (active) | < 0.01 µM (active) | 0.0708 | < 0.01 µM (active) | < 0.01 µM (active) |  | < 0.01 µM (active) | < 0.01 µM (active) | < 0.01 µM (active) | 0.0813 µM (active) | 0.0101 µM (active)
8 | O=C(O[C@H](/C=C/c1ccccc1)P1(=O)N(Cc2ccccc2)[C@@H]2CCCC[C@H]2N1Cc1ccccc1)c1ccccc1 | 7.87 µM (inactive) | 4.55 µM (inactive) | 4.06 µM (inactive) | 3.24 µM (inactive) | 3.07 µM (inactive) | 2.98 µM (inactive) | 4.86 µM (inactive) | 3.94 µM (inactive) | 2.17 µM (inactive) | 2.16 µM (inactive) | 3.41 µM (inactive) | 2.91 | 3.66 µM (inactive) | 3.46 µM (inactive) | 3.18 µM (inactive) | 6.5 µM (inactive) | 2.49 µM (inactive) | 3.79 µM (inactive) | 1.79 µM (inactive) | 
9 | Cc1ccsc1/C=N/Nc1cc(C)c2cccc(C)c2n1 | > 100 µM (inactive) | > 100 µM (inactive) | > 100 µM (inactive) |  | > 100 µM (inactive) |  | > 100 µM (inactive) | > 100 µM (inactive) | > 100 µM (inactive) | > 100 µM (inactive) |  |  | > 100 µM (inactive) |  | > 100 µM (inactive) | > 100 µM (inactive) |  | 9.33 µM (inactive) | > 100 µM (inactive) | > 100 µM (inactive)
10 | CC(=O)Nc1ccc2nc(-c3cccc(F)c3)cc(O)c2c1 | > 100 µM (inactive) | 4.04 µM (inactive) | 28.1 µM (inactive) | 2.13 µM (inactive) | 15.9 µM (inactive) | 1.41 µM (inactive) | 3.01 µM (inactive) | > 83.9 µM (inactive) | 11.2 µM (inactive) | 14.5 µM (inactive) |  | 17.7 | 59.4 µM (inactive) | 16.4 µM (inactive) | 12.6 µM (inactive) | 4.93 µM (inactive) | 4 µM (inactive) | 18.8 µM (inactive) |  | 
11 | COc1ccccc1NCc1cccc2c(=O)c3ccc(Cl)cc3oc12 | 60.5 µM (inactive) | > 100 µM (inactive) |  | 47.1 µM (inactive) | > 100 µM (inactive) | 65.2 µM (inactive) | > 100 µM (inactive) | > 100 µM (inactive) | 56.9 µM (inactive) | > 100 µM (inactive) | > 100 µM (inactive) | > 100 | 78.3 µM (inactive) |  | > 100 µM (inactive) | 92.7 µM (inactive) | 34.7 µM (inactive) | > 100 µM (inactive) | > 100 µM (inactive) | 
12 | c1csc(-c2csc(-c3ccsc3)c2)c1 | > 100 µM (inactive) | > 100 µM (inactive) | > 100 µM (inactive) | > 100 µM (inactive) | > 100 µM (inactive) | > 55.5 µM (inactive) | > 100 µM (inactive) | > 100 µM (inactive) | > 100 µM (inactive) | > 100 µM (inactive) | > 100 µM (inactive) | > 100 | 99.5 µM (inactive) | > 100 µM (inactive) | > 100 µM (inactive) | > 100 µM (inactive) | 56.4 µM (inactive) | > 100 µM (inactive) | > 100 µM (inactive) | 
13 | O=c1c(C(c2cccnc2)c2c(O)oc3cc(O)ccc3c2=O)c(O)oc2cc(O)ccc12 | > 100 µM (inactive) | > 100 µM (inactive) | > 100 µM (inactive) | > 100 µM (inactive) | > 100 µM (inactive) | > 100 µM (inactive) | > 100 µM (inactive) | > 100 µM (inactive) | > 100 µM (inactive) | > 100 µM (inactive) | > 100 µM (inactive) | > 100 | > 100 µM (inactive) | > 100 µM (inactive) | > 100 µM (inactive) | > 100 µM (inactive) |  | > 100 µM (inactive) |  | > 100 µM (inactive)
14 | O=S(=O)(N=[Se](=O)(c1ccccc1)c1ccccc1)c1ccccc1 |  |  | > 100 µM (inactive) | > 100 µM (inactive) | > 100 µM (inactive) | > 100 µM (inactive) |  | > 100 µM (inactive) | > 100 µM (inactive) | > 100 µM (inactive) | > 100 µM (inactive) | > 100 |  | > 100 µM (inactive) | > 100 µM (inactive) | 60 µM (inactive) |  | > 100 µM (inactive) | > 100 µM (inactive) | 
15 | c1cc(-c2cn3c(n2)SCC3)ccn1 | > 100 µM (inactive) |  | > 100 µM (inactive) | > 31.6 µM (inactive) | > 100 µM (inactive) | > 44.9 µM (inactive) | > 100 µM (inactive) | > 100 µM (inactive) | > 57.8 µM (inactive) | > 100 µM (inactive) | > 59.2 µM (inactive) | > 43.2 | > 100 µM (inactive) | > 55.3 µM (inactive) |  | > 100 µM (inactive) | > 100 µM (inactive) | > 100 µM (inactive) | > 100 µM (inactive) | 
16 | CC1=C(/C=C/C(C)=C/C=C/C(C)=C/CO)C(C)(C)CCC1 [RETINOL] | 27.6 µM (inactive) |  | 28.6 µM (inactive) | 26.5 µM (inactive) | 21.7 µM (inactive) | 14.1 µM (inactive) | 19.5 µM (inactive) | 29.4 µM (inactive) | 19.1 µM (inactive) | 42 µM (inactive) | 24.6 µM (inactive) | 30.6 | 19.1 µM (inactive) | 30.5 µM (inactive) | 19.5 µM (inactive) | 22.1 µM (inactive) | 11.1 µM (inactive) | 24.2 µM (inactive) | 37.7 µM (inactive) | 38.3 µM (inactive)
